How the values were obtained:
human CRTH2 [1] = target: T1, human CRTH2 (Homo sapiens, UniProt Q9Y5Y4); assay: Human CRTH2 receptor binding assay (Assay 2); settings: binding to puromycin-resistant human CRTH2 L1.2 transfectants
T1 construct: expressed in transfected cells; host or cells: L1.2 cells, pEAK expression vector, puromycin-selected
T1 sequence (Q9Y5Y4 1-395): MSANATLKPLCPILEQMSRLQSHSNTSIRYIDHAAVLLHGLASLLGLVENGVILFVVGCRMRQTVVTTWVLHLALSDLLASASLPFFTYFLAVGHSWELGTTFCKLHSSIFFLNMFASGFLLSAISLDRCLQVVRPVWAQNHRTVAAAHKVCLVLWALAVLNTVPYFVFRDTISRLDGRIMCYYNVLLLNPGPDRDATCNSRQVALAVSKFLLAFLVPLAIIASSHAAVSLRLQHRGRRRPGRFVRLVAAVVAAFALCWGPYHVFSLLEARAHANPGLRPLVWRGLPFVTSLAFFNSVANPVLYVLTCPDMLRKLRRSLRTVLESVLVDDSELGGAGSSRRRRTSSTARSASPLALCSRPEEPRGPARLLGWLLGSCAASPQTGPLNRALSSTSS
Experimental: Human CRTH2 cDNA was amplified from human eosinophil cDNA with gene specific primers containing restriction sites for cloning into pEAK vector (Edge Bio Systems). The human CRTH2 cDNA was cloned into the mammalian expression vector pEAK. This expression plasmid (40 μg) was transfected into L1.2 cells, at a cell density of 1×10^7 cells/500 μl, by using electroporation apparatus (Gene Pulser II, BioRad) at 250V/1,000 μF. One day after the transfection, puromycin (1 μg/ml, Sigma) was added into the cell culture plates. Two weeks after the transfection, grown cells were picked up for further growth.
[Human CRTH2 Receptor Binding Assay] (Assay 2)
CRTH2 transfectants were washed once with PBS and resuspended in binding buffer (50 mM Tris-HCl, pH7.4, 40 mM MgCl2, 0.1% BSA, 0.1% NaN3). 100 μl of cell suspension (2×10^5 cells), [^3H]-labeled PGD2, and various concentrations of test compound were then mixed in a 96-well U-bottom polypropylene plate and incubated for […] at room temperature to allow binding to occur. […] Scintillant was added to the filtration plate, and radioactivity remaining on the filter was measured by TopCount (Packard), a scintillation counter. Non-specific binding was determined by incubating the cell suspension and [^3H]-labeled PGD2 in the presence of 1 μM of unlabeled PGD2.

human CRTH2 [2] = target: T1, human CRTH2; assay: Measurement of Ca2+ mobilization in the human CRTH2-transfected L1.2 cell line (Assay 1); format: cell-based; settings: PGD2-induced Ca2+ mobilization in CRTH2-transfected L1.2 cells; compounds as yielded by solid phase synthesis, purity about 40 to 90%; read-out: Activity class
Outline: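 Human CRTH2 was stably expressed in L1.2 cells (puromycin-selected) loaded with Fluo-3AM (1 μM final) for 60 min at room temperature. Buffer was 20 mM HEPES pH 7.6, 0.1% BSA, 1 mM probenecid in Hanks'. Cells (2×10^5/well) got compound for 5 min at RT, with fluorescence at 480 nm. IC50 bins: A ≤10 nM, B ≤100 nM, C ≤500 nM, D above; samples were solid-phase products of about 40–90% purity.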

Compound | Kd (human CRTH2 [1]) [nM] | melting point | IC50 (human CRTH2 [2]) [nM]
CCCCC[C@H](O)/C=C/[C@H]1C(=O)C[C@H](O)[C@@H]1C/C=C\CCCC(=O)O [[^3H]-labeled PGD2] | 6.3 |  | 
CN(CC(=O)NC1CCCC1)c1nc(Cc2ccc(NC(=O)C3CC3)cc2)nc(Cl)c1CC(=O)O [Example 1-6] |  | > 146 °C | > 500
COc1ccc(C(=O)Nc2ccc(Cc3nc(Cl)c(CC(=O)O)c(N(C)C)n3)cc2)cc1OC [Example 1-38] |  | > 95 °C | 10 to 100
CN(C)c1nc(Cc2ccc(NC(=O)/C=C/c3ccc(Cl)cc3)cc2)nc(Cl)c1CC(=O)O [Example 1-41] |  | 117 °C | < 10
CN(C)c1nc(Cc2cccc(NC(=O)c3ccc4ccccc4c3)c2)nc(Cl)c1CC(=O)O [Example 1-49] |  | 186 °C | 10 to 100
CN(CC(=O)NC1CCCC1)c1nc(Cc2ccc(NC(=O)CC3Cc4ccccc4C3)cc2)nc(Cl)c1CC(=O)O [Example 1-28] |  | > 110 °C | < 10
CN(CC(=O)NC1CCCC1)c1nc(Cc2ccc(NC(=O)c3ccc(Cl)c(Cl)c3)cc2)nc(Cl)c1CC(=O)O [Example 1-19] |  | 144 °C | < 10
CN(CC(=O)NC1CCCC1)c1nc(Cc2ccc(NC(=O)c3ccc(Cl)cc3)cc2)nc(Cl)c1CC(=O)O [Example 1-18] |  | 143 °C | < 10
CN(C)c1nc(Cc2ccc(NC(=O)c3cccc(Cl)c3)cc2)nc(Cl)c1CC(=O)O [Example 1-47] |  | > 108 °C | < 10
O=C(O)Cc1c(Cl)nc(Cc2ccc(NC(=O)/C=C/c3ccccc3)cc2)nc1N1CCCC1 [Example 1-60] |  | 120 °C | < 10
CN(C)c1nc(Cc2ccc(NC(=O)c3ccc(Cl)cc3)cc2)nc(Cl)c1CC(=O)O [Example 1-35] |  | > 166 °C | < 10
O=C(O)Cc1c(Cl)nc(Cc2ccc(NC(=O)c3ccc([N+](=O)[O-])cc3)cc2)nc1N1CCCC1 [Example 1-53] |  | 134 °C | 10 to 100
CN(C)c1nc(Cc2ccc(NC(=O)[C@@H]3CCc4ccccc4O3)cc2)nc(Cl)c1CC(=O)O [Example 1-67] |  | > 120 °C | < 10
CN(CC(=O)NC1CCCC1)c1nc(Cc2ccc(NC(=O)c3cccnc3)cc2)nc(Cl)c1CC(=O)O [Example 1-4] |  | > 174 °C | > 500
CN(C)c1nc(Cc2ccc(NC(=O)c3ccc4ccccc4n3)cc2)nc(Cl)c1CC(=O)O [Example 1-32] |  | 135 to 142 °C | < 10
CC(C)NC(=O)CN(C)c1nc(Cc2ccc(NC(=O)c3ccc4ccccc4c3)cc2)nc(Cl)c1CC(=O)O [Example 1-7] |  | 181 °C | < 10
COc1c(C)cc(C(=O)Nc2ccc(Cc3nc(Cl)c(CC(=O)O)c(N4CCCC4)n3)cc2)cc1C [Example 1-59] |  | 115 °C | < 10
Cc1ccc(CC(=O)Nc2ccc(Cc3nc(Cl)c(CC(=O)O)c(N(C)CC(=O)NC4CCCC4)n3)cc2)cc1 [Example 1-15] |  | > 116 °C | 10 to 100
CN(C)c1nc(Cc2ccc(NC(=O)c3cc(Cl)cc(Cl)c3)cc2)nc(Cl)c1CC(=O)O [Example 1-46] |  | > 99 °C | < 10

More lines, now with the values ahead:

Kd (human CRTH2 [1]) [nM] | melting point | IC50 (human CRTH2 [2]) [nM] | Compound
 | 143 to 145 °C | < 10 | O=C(O)Cc1cnc(Cc2ccc(NC(=O)c3ccc(F)cc3)cc2)nc1N1CCCC1 [Example 2-29]
 | 151 to 153 °C | < 10 | O=C(O)Cc1cnc(Cc2ccc(NC(=O)c3ccc(Cl)cc3)cc2)nc1N1CCCC1 [Example 2-28]
 | 128 to 131 °C | < 10 | COCc1nc(Cc2ccc(NC(=O)c3ccc4ccccc4c3)cc2)nc(N(C)C)c1CC(=O)O [Example 8-6]
 | 111 to 113 °C | 10 to 100 | CN(C)c1nc(Cc2ccc(NC(=O)c3cccc(Cl)c3)cc2)ncc1CC(=O)O [Example 2-15]
 | 192 to 195 °C (dec.) | < 10 | COc1ccc(/C=C/C(=O)Nc2ccc(Cc3nc(N(C)C)c(CC(=O)O)c(N4CCOCC4)n3)cc2)cc1 [Example 7-25]
 | 131 to 134 °C | < 10 | CC(c1ccc(NC(=O)c2ccc(Cl)cc2)cc1)c1ncc(CC(=O)O)c(N(C)C)n1 (stereo not shown) [Example 2-25]
 | 148 to 150 °C | 10 to 100 | CC(C)CC(=O)Nc1ccc(Cc2ncc(CC(=O)[O-])c(N3CCCC3)n2)cc1.[Na+] [Example 2-32]
 | 120 to 123 °C | 10 to 100 | CC(c1ccc(NC(=O)c2ccc3ccccc3n2)cc1)c1ncc(CC(=O)O)c(N(C)C)n1 (stereo not shown) [Example 2-24]
 | 130 to 133 °C | 100 to 500 | CCCC(=O)Nc1ccc(Cc2ncc(CC(=O)O)c(N3CCCC3)n2)cc1 [Example 2-36]
 | 137 to 140 °C | < 10 | CN(C)c1nc(Cc2ccc(NC(=O)c3ccc(Oc4ccccc4)cc3)cc2)nc(N2CCCC2)c1CC(=O)O [Example 7-24]
 | 126 to 128 °C | < 10 | COCc1nc(Cc2ccc(NC(=O)c3ccc(C(F)(F)F)cc3)cc2)nc(N(C)C)c1CC(=O)O [Example 8-7]
 | 136 to 140 °C | < 10 | CN(C)c1nc(Cc2ccc(NC(=O)/C=C/c3ccc(Cl)cc3)cc2)ncc1CC(=O)O [Example 2-11]
 | 111 °C | < 10 | COc1ccc(C(=O)Nc2ccc(Cc3ncc(CC(=O)O)c(N(C)C)n3)cc2)cc1 [Example 2-7]
 | 132 to 134 °C | > 500 | CN(C)c1nc(Cc2ccc(NC(=O)c3ccccc3-c3ccccc3)cc2)nc(N2CCCC2)c1CC(=O)O [Example 7-14]
 | 137 to 140 °C | < 10 | CC(c1ccc(NC(=O)c2ccc(Cl)c(Cl)c2)cc1)c1ncc(CC(=O)O)c(N(C)C)n1 (stereo not shown) [Example 2-21]
 | 150 to 151 °C | < 10 | O=C(O)Cc1cnc(Cc2ccc(NC(=O)c3ccc4ccccc4c3)cc2)nc1N1CCCC1 [Example 2-31]
 | 106 to 110 °C | 100 to 500 | COc1ccc(C(=O)Nc2ccc(Cc3ncc(CC(=O)O)c(N(C)C)n3)cc2)cc1OC [Example 2-12]
 | 192 to 194 °C | > 500 | CN(C)c1nc(Cc2ccc(NC(=O)c3ccccc3Oc3ccccc3)cc2)nc(N2CCCC2)c1CC(=O)O [Example 7-22]
 | 162 °C | < 10 | CN(C)c1nc(Cc2ccc(NC(=O)/C=C/c3ccc(Cl)cc3)cc2)nc(N(C)C)c1CC(=O)O [Example 7-8]
 | 129 to 132 °C | 10 to 100 | CN(C)c1nc(Cc2ccc(NC(=O)/C=C/c3ccccc3)cc2)nc(N2CCOCC2)c1CC(=O)O [Example 7-21]
 | 172 to 175 °C | > 500 | CN(C)c1nc(Cc2ccc(NC(=O)COc3ccccc3)cc2)nc(N2CCOCC2)c1CC(=O)O [Example 7-26]
 | > 96 °C | 100 to 500 | CN(CC(=O)NC1CCCC1)c1nc(Cc2ccc(NCc3ccc4ccccc4c3)cc2)nc(Cl)c1CC(=O)O [Example 5-3]
 | 91 to 93 °C | < 10 | CN(C)c1nc(Cc2ccc(NC(=O)OCc3ccc(C(F)(F)F)cc3)cc2)ncc1CC(=O)O [Example 9-8]
 | 151 to 154 °C | < 10 | CC(c1ccc(NC(=O)c2ccc(C(F)(F)F)cc2)cc1)c1ncc(CC(=O)O)c(N(C)C)n1 (stereo not shown) [Example 2-22]
